Measurements: US20030171579A1, “Urethane derivatives” (priority 2003, published 2003)

How the values were obtained:
factor Xa, human = factor Xa, human (Homo sapiens, UniProt P00742); test: Inhibition of factor Xa ("Affinity to receptors"); assay type: biochemical
Source text: The inhibition of factor Xa by the compounds according to the invention and the measurement of the anticoagulant and antithrombotic activity can be determined by conventional in-vitro or in-vivo methods. A suitable method is described, for example, by J. Hauptmann et al. in Thrombosis and Haemostasis 1990, 63, 220-223.
The inhibition of factor Xa can be measured, for example, by the method of T. Hara et al. in Thromb. Haemostas. 1994, 71, 314-319.

TF/VIIa = TF/VIIa (Homo sapiens, UniProt P08709); test: Inhibition of TF/VIIa ("Affinity to receptors"); assay type: biochemical
Source text: The inhibition of factor VIIa by the compounds according to the invention and the measurement of the anticoagulant and antithrombotic activity can be determined by conventional in-vitro or in-vivo methods. A conventional method for the measurement of the inhibition of factor VIIa is described, for example, by H. F. Ronning et al. in Thrombosis Research 1996, 84, 73-81.

TF/VIIa, sequence (P08709 213-466 limits assumed): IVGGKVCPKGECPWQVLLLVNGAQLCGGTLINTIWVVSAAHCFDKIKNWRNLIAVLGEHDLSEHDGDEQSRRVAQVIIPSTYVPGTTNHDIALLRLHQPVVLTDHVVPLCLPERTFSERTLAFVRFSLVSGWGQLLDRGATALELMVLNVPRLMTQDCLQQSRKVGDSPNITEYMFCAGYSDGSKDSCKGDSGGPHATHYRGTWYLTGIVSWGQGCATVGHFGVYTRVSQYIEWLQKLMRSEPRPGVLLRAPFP
TF/VIIa, sequence (P08709 61-212 limits assumed): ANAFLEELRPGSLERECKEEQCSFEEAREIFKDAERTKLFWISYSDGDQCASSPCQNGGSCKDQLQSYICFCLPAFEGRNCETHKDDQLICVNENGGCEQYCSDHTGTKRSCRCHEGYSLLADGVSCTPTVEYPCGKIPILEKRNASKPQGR
TF/VIIa, sequence (P13726 33-295 partner): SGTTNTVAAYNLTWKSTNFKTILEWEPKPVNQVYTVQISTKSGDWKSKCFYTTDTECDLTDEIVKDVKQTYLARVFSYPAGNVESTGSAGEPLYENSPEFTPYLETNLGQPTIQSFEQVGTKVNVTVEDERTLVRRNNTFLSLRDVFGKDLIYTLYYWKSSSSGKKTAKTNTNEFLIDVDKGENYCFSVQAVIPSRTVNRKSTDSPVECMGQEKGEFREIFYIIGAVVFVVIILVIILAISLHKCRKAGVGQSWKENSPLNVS
factor Xa, human, sequence (P00742 235-488 limits assumed): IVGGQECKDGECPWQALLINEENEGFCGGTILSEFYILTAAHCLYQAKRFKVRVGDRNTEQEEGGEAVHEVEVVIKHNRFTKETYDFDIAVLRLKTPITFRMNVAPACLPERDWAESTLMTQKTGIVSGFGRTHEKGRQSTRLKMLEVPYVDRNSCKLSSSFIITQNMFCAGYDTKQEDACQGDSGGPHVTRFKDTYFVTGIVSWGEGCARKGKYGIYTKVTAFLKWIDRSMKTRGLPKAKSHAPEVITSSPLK
factor Xa, human, sequence (P00742 41-179 limits assumed): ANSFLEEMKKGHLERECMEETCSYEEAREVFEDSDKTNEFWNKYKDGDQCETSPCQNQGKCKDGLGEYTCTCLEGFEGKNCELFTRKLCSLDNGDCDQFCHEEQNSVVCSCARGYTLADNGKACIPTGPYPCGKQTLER

SMILES | IC50 (factor Xa, human) | melting point | IC50 (TF/VIIa)
CCCN(Cc1cccc(C(=N)N)c1)C(=O)Nc1ccc(-c2ccccc2S(N)(=O)=O)cc1 [Example 3.3, 1-(3-amidino-benzyl)-3-(2′-sulfamoylbiphenyl-4-yl)-1-propylurea] | 140 nM | 166 to 167 °C | 80 nM
N=C(N)c1cccc(CN(C(=O)Nc2ccc(-c3ccccc3S(N)(=O)=O)cc2)c2ccccc2)c1 [Example 5.3, 1-(3-amidinobenzyl)-3-(2′-sulfamoylbiphenyl-4-yl)-1-phenylurea] | 330 nM | 201 to 202 °C | 100 nM
CS(=O)(=O)c1ccccc1-c1ccc(NC(=O)N(Cc2cccc(C(=N)N)c2)c2ccccc2)cc1 [Example 6.3, 1-(3-amidinobenzyl)-3-(2′-methylsulfonylbiphenyl-4-yl)-1-phenylurea] | 300 nM |  | 70 nM

Now those with a lower IC50 (factor Xa, human), led by results:

IC50 (factor Xa, human) | melting point | IC50 (TF/VIIa) | SMILES
100 nM |  | 30 nM | CCCN(Cc1cccc(C(=N)N)c1)C(=O)Nc1ccc(-c2ccccc2S(C)(=O)=O)cc1 [Example 4.3, 1-(3-amidino-benzyl)-3-(2′-methylsulfonylbiphenyl-4-yl)-1-propylurea]
80 nM |  | 26 nM | CS(=O)(=O)c1ccccc1-c1ccc(NC(=O)N(Cc2ccccc2)Cc2cccc(C(=N)N)c2)cc1 [1-(3-amidinobenzyl)-3-(2′-methylsulfonylbiphenyl-4-yl)-1-benzylurea]
